# Assays:
# [1] = Compatibility tests of components, 1 month; assay type: physicochemical; conditions: for degradation of letrozole caused by PTSA: 1 months
# Protocol: The compatibility test was performed at room temperature (25° C.), 40° C. under 75% RH and 50° C., for 1 months with the various components tested in proportion to the intended composition.
# [2] = pH dependence; cited from earlier work
smiles,measurement,setting,value
"N#Cc1ccc(C(c2ccc(C#N)cc2)n2cncn2)cc1 [letrozole, Letrozole]",degradation of letrozole caused by PTSA,[1]; 25° C.,5%
same,degradation of letrozole caused by PTSA,[1]; 40° C.,12%
same,degradation of letrozole caused by PTSA,[1]; 50° C.,15%
"CC(=O)c1c(C)c2cnc(Nc3ccc(N4CCNCC4)cn3)nc2n(C2CCCC2)c1=O [palbociclib base, Palbociclib]",degradation of palbociclib base by PTSA,"[1]; 25° C., 40° C. and 50° C., one month",did not induce degradation
same,solubility,[2],soluble only in a strongly acidic medium
